Source: patent US6281248A, “Composition for treating asthma” (priority 2000, dated 2001)

Tests used:
Metabolism = settings: in vivo
[1] = Plasma clearance in elderly patients
[2] = Desmethylsertraline pharmacokinetics, day 1 to day 14; format: in vivo
[3] = In vivo pharmacological testing of N-demethylsertraline
[4] = tested on: plasma protein binding of warfarin; experiment: Plasma protein binding of warfarin; format: in vitro ADME; settings: sertraline up to 300 ng/mL, desmethylsertraline up to 200 ng/mL
[5] = tested on: plasma protein binding of propranolol; experiment: Plasma protein binding of propranolol; format: in vitro ADME; settings: sertraline up to 300 ng/mL, desmethylsertraline up to 200 ng/mL
[6] = In vitro biochemical testing of N-demethylsertraline
[7] = single dose, with vs without food
clinical [8] = settings: human, in vivo, mean half-life
bacteria = experiment: Bacterial mutation assay; format: cell-based; settings: with or without metabolic activation
[9] = Solubility of the present invention; format: physicochemical
[10] = tested on: beta-adrenergic blocking ability of atenolol; experiment: Interaction with atenolol in healthy male subjects; format: in vivo, human; settings: 100 mg
[11] = tested on: dopamine neuronal reuptake; experiment: In vitro neuronal dopamine reuptake; settings: animals
[12] = not given; remark: listed apart in the source
[13] = Electrocardiograms of patients in double-blind trials; format: in vivo, human; settings: 774 patients
[14] = In vitro protein binding with radiolabeled 3H-sertraline; format: in vitro ADME; settings: serum, 20 to 500 ng/mL, read-out: binding to serum proteins (converted)
clinical [15] = settings: human, plasma
mouse lymphoma = experiment: Mouse lymphoma mutation assay; format: cell-based; settings: with or without metabolic activation
clinical [16] = settings: human, in vivo
clinical [17] = settings: human, in vivo; remark: listed apart in the source
[18] = not given; remark: listed apart in the source

For `N[C@H]1CC[C@@H](c2ccc(Cl)c(Cl)c2)c2ccccc21` [N-demethylsertraline], the metabolic pathway (Metabolism) was “oxidative deamination and subsequent reduction, hydroxylation, and glucuronide conjugation”, the “clearance in older males” value ([1]; older males) was “decreased clearance” and the “increase in AUC (0-24 hour) between day 1 and day 14” value ([2]; day 1 to day 14) was 5-9 fold. The “increase in Cmax between day 1 and day 14” value ([2]; day 1 to day 14) was 5-9 fold, the “increase in Cmin between day 1 and day 14” value ([2]; day 1 to day 14) was 5-9 fold and the “time and dose dependence of AUC (0-24 hour), Cmax, and Cmin” value ([2]; in vivo) was “time-related, dose dependent increases”. The “activity in in vivo pharmacological testing relative to sertraline” value [3] was “substantially less active than sertraline”, the “alteration of plasma protein binding of warfarin” value [4] was “did not alter” and the “alteration of plasma protein binding of propranolol” value [5] was “did not alter”. The “activity in in vitro biochemical testing relative to sertraline” value [6] was “substantially less active than sertraline”.
For `CN[C@H]1CC[C@@H](c2ccc(Cl)c(Cl)c2)c2ccccc21.Cl` [sertraline, (1S-cis)-4-(3,4-dichlorophenyl)-1,2,3,4-tetrahydro-N-methyl-1-naphthalenamine hydrochloride], the AUC with food [7] was “slightly increased”, the “Cmax increase with food” value [7] was 25% and the first pass metabolism (Metabolism) was “extensive first pass metabolism”. For the same compound, the metabolic pathway (Metabolism) was “oxidative deamination and subsequent reduction, hydroxylation, and glucuronide conjugation”, the “principal initial pathway of metabolism” value (Metabolism) was “N-demethylation” and the half-life (clinical [8]) was 26.2 h. The “genotoxic effects, bacterial mutation assay” value (bacteria) was “no genotoxic effects”, the “plasma clearance lower than in younger individuals” value ([1]; elderly, 100 mg/day for 14 days, vs 25 to 32 y.o.) was “approximately 40%” and the mean half-life (human, in vivo) was 27.8 h. For the same compound, the gender associated differences (pediatric patients, males and females) was “No gender associated differences were observed”, the solubility in ethanol ([9]; ethanol) was “sparing soluble” and the “solubility in isopropyl alcohol” value ([9]; isopropyl alcohol) was “slightly soluble”. For the same compound, the solubility in water ([9]; water) was “slightly soluble”, the “effect on the beta-adrenergic blocking ability of atenolol” value [10] was “no effect” and the “effects on dopamine neuronal reuptake” value [11] was “only very weak effects”. For the same compound, the “time to steady-state plasma levels” value ([12]; once-daily dosing, based on half-life) was “approximately one”, the Cmax dose proportionality ([12]; single dose, 50 to 200 mg) was “proportional to dose” and the ECG abnormalities [13] was “not associated with the development of significant ECG abnormalities”. For the same compound, the fraction unbound [14] was 0.02, the half-life (clinical [15]) was ~26 h and the “genotoxic effects, mouse lymphoma mutation assay” value (mouse lymphoma) was “no genotoxic effects”. The dose excreted at 216 h (clinical [16]) was 12 to 14%, the half-life (clinical [17]) was 27.2 h and the “unchanged sertraline in the urine” value [18] was “not detectable”.
